{"source": "patent US11766411B2", "about": "“Use of cannabinoids in the treatment of epilepsy” (GW Research Limited, priority 2014, dated 2023)", "key": {"patients with FIRES": {"tested_on": "patients with FIRES", "assay": "Expanded access program, febrile infection related epilepsy syndrome (FIRES) patients", "type": "in vivo, human", "parameters": "Change from Baseline: unit not given here", "settings": "total seizures", "method": "Three patients with FIRES, with an age range of from 4 to 15 years, were treated with CBD under an expanded access program as described previously in Example 1.\nSafety laboratory studies, physical/neurological exams, 24 hour video/EEG and seizure types and frequencies were assessed at baseline and one month after starting CBD.\nA highly purified extract of CBD as an oral solution in sesame oil was used at a concentration of 25 mg/mL.\nTreatment was initiated at a dose of 10 mg/kg/day given in two divided doses, increasing by 5 mg/kg/day every 3 days.\nFollowing seizure improvement an average of 2 AEDs were weaned."}, "adult patients": {"tested_on": "adult patients", "settings": "200 mg/day of pure CBD, four adult patients; cited from earlier work"}, "[1]": {"tested_on": "children and young adults with treatment-resistant myoclonic absence seizures", "assay": "Expanded access compassionate use program, myoclonic absence seizures sub-group", "type": "in vivo, human", "method": "Twenty-seven children and young adults with severe, childhood onset treatment-resistant epilepsy (TRE) were tested with a highly purified extract of cannabidiol (CBD) obtained from a cannabis plant. The participants in the study were part of an expanded access compassionate use program for CBD.\nAll patients entered a baseline period of 4 weeks when parents/caregivers kept prospective seizure diaries, noting all countable motor seizure types.\nThe patients then received a highly purified CBD extract (greater than 98% CBD w/w) in sesame oil, of known and constant composition, at a dose of 5 mg/kg/day in addition to their baseline anti-epileptic drug (AED) regimen.\nLaboratory testing for hematologic, liver, kidney function, and concomitant AED levels was performed at baseline, and after 4, 8 and 12 weeks of CBD therapy.\nFour children and young adults with treatment-resistant myoclonic absence seizures were part of an expanded access compassionate use program for highly purified CBD extract as described in Example 1."}, "[2]": {"settings": "4 MAS subjects, 3-month treatment period"}, "[3]": {"settings": "MAS patients (n = 4), after 3 months of therapy"}}}
{"smiles": "C=C(C)[C@@H]1CCC(C)=C[C@H]1c1c(O)cc(CCCCC)cc1O", "note": "[CBD, Cannabidiol]", "values": [{"measurement": "Responder (>=90% Reduction)", "setting": "patients with FIRES; Patient 2, Wk 2", "result": "No"}, {"measurement": "Seizure Free", "setting": "patients with FIRES; Patient 2, Wk 2", "result": "No"}, {"measurement": "% Change from Baseline", "setting": "patients with FIRES; Patient 2, Wk 4", "result": "−57.1", "unit": "%"}, {"measurement": "Change from Baseline", "setting": "patients with FIRES; Patient 2, Wk 4", "result": "−4.0"}, {"measurement": "Frequency (per month)", "setting": "patients with FIRES; Patient 2, Wk 4", "result": 3.0, "unit": "per month"}, {"measurement": "Responder (>=50% Reduction)", "setting": "patients with FIRES; Patient 2, Wk 4", "result": "Yes"}, {"measurement": "Responder (>=70% Reduction)", "setting": "patients with FIRES; Patient 2, Wk 4", "result": "No"}, {"measurement": "Responder (>=90% Reduction)", "setting": "patients with FIRES; Patient 2, Wk 4", "result": "No"}, {"measurement": "Seizure Free", "setting": "patients with FIRES; Patient 2, Wk 4", "result": "No"}, {"measurement": "% Change from Baseline", "setting": "patients with FIRES; Patient 2, Wk 8", "result": 42.9, "unit": "%"}, {"measurement": "Change from Baseline", "setting": "patients with FIRES; Patient 2, Wk 8", "result": 3.0}, {"measurement": "Frequency (per month)", "setting": "patients with FIRES; Patient 2, Wk 8", "result": 10.0, "unit": "per month"}, {"measurement": "Responder (>=50% Reduction)", "setting": "patients with FIRES; Patient 2, Wk 8", "result": "No"}, {"measurement": "Responder (>=70% Reduction)", "setting": "patients with FIRES; Patient 2, Wk 8", "result": "No"}, {"measurement": "Responder (>=90% Reduction)", "setting": "patients with FIRES; Patient 2, Wk 8", "result": "No"}, {"measurement": "Seizure Free", "setting": "patients with FIRES; Patient 2, Wk 8", "result": "No"}, {"measurement": "% Change from Baseline", "setting": "patients with FIRES; Patient 2, Wk 12", "result": 14.3, "unit": "%"}, {"measurement": "Change from Baseline", "setting": "patients with FIRES; Patient 2, Wk 12", "result": 1.0}, {"measurement": "Frequency (per month)", "setting": "patients with FIRES; Patient 2, Wk 12", "result": 8.0, "unit": "per month"}, {"measurement": "Responder (>=50% Reduction)", "setting": "patients with FIRES; Patient 2, Wk 12", "result": "No"}, {"measurement": "Responder (>=70% Reduction)", "setting": "patients with FIRES; Patient 2, Wk 12", "result": "No"}, {"measurement": "Responder (>=90% Reduction)", "setting": "patients with FIRES; Patient 2, Wk 12", "result": "No"}, {"measurement": "Seizure Free", "setting": "patients with FIRES; Patient 2, Wk 12", "result": "No"}, {"measurement": "% Change from Baseline", "setting": "patients with FIRES; Patient 2, Wk 16", "result": "−42.9", "unit": "%"}, {"measurement": "Change from Baseline", "setting": "patients with FIRES; Patient 2, Wk 16", "result": "−3.0"}, {"measurement": "Frequency (per month)", "setting": "patients with FIRES; Patient 2, Wk 16", "result": 4.0, "unit": "per month"}, {"measurement": "Responder (>=50% Reduction)", "setting": "patients with FIRES; Patient 2, Wk 16", "result": "No"}, {"measurement": "Responder (>=70% Reduction)", "setting": "patients with FIRES; Patient 2, Wk 16", "result": "No"}, {"measurement": "Responder (>=90% Reduction)", "setting": "patients with FIRES; Patient 2, Wk 16", "result": "No"}, {"measurement": "Seizure Free", "setting": "patients with FIRES; Patient 2, Wk 16", "result": "No"}, {"measurement": "% Change from Baseline", "setting": "patients with FIRES; Patient 3, Wk 4", "result": "−99.2", "unit": "%"}, {"measurement": "Change from Baseline", "setting": "patients with FIRES; Patient 3, Wk 4", "result": "−5552.8"}, {"measurement": "Frequency (per month)", "setting": "patients with FIRES; Patient 3, Wk 4", "result": 47.2, "unit": "per month"}, {"measurement": "Responder (>=50% Reduction)", "setting": "patients with FIRES; Patient 3, Wk 4", "result": "Yes"}, {"measurement": "Responder (>=70% Reduction)", "setting": "patients with FIRES; Patient 3, Wk 4", "result": "Yes"}, {"measurement": "Responder (>=90% Reduction)", "setting": "patients with FIRES; Patient 3, Wk 4", "result": "Yes"}, {"measurement": "Seizure Free", "setting": "patients with FIRES; Patient 3, Wk 4", "result": "No"}, {"measurement": "% Change from Baseline", "setting": "patients with FIRES; Patient 3, Wk 8", "result": "−99.8", "unit": "%"}, {"measurement": "Change from Baseline", "setting": "patients with FIRES; Patient 3, Wk 8", "result": "−5590.8"}, {"measurement": "Frequency (per month)", "setting": "patients with FIRES; Patient 3, Wk 8", "result": 9.2, "unit": "per month"}, {"measurement": "Responder (>=50% Reduction)", "setting": "patients with FIRES; Patient 3, Wk 8", "result": "Yes"}, {"measurement": "Responder (>=70% Reduction)", "setting": "patients with FIRES; Patient 3, Wk 8", "result": "Yes"}, {"measurement": "Responder (>=90% Reduction)", "setting": "patients with FIRES; Patient 3, Wk 8", "result": "Yes"}, {"measurement": "Seizure Free", "setting": "patients with FIRES; Patient 3, Wk 8", "result": "No"}, {"measurement": "% Change from Baseline", "setting": "patients with FIRES; Patient 3, Wk 12", "result": "−97.5", "unit": "%"}, {"measurement": "Change from Baseline", "setting": "patients with FIRES; Patient 3, Wk 12", "result": "−5458.4"}, {"measurement": "Frequency (per month)", "setting": "patients with FIRES; Patient 3, Wk 12", "result": 141.6, "unit": "per month"}, {"measurement": "Responder (>=50% Reduction)", "setting": "patients with FIRES; Patient 3, Wk 12", "result": "Yes"}, {"measurement": "Responder (>=70% Reduction)", "setting": "patients with FIRES; Patient 3, Wk 12", "result": "Yes"}, {"measurement": "Responder (>=90% Reduction)", "setting": "patients with FIRES; Patient 3, Wk 12", "result": "Yes"}, {"measurement": "Seizure Free", "setting": "patients with FIRES; Patient 3, Wk 12", "result": "No"}, {"measurement": "% Change from Baseline", "setting": "patients with FIRES; Patient 3, Wk 24", "result": "−90.3", "unit": "%"}, {"measurement": "Change from Baseline", "setting": "patients with FIRES; Patient 3, Wk 24", "result": "−5058.0"}, {"measurement": "Frequency (per month)", "setting": "patients with FIRES; Patient 3, Wk 24", "result": 542.0, "unit": "per month"}, {"measurement": "Responder (>=50% Reduction)", "setting": "patients with FIRES; Patient 3, Wk 24", "result": "Yes"}, {"measurement": "Responder (>=70% Reduction)", "setting": "patients with FIRES; Patient 3, Wk 24", "result": "Yes"}, {"measurement": "Responder (>=90% Reduction)", "setting": "patients with FIRES; Patient 3, Wk 24", "result": "Yes"}, {"measurement": "Seizure Free", "setting": "patients with FIRES; Patient 3, Wk 24", "result": "No"}, {"measurement": "patients who became seizure free", "setting": "adult patients", "result": "two"}, {"measurement": "Common adverse events", "setting": "[1]; [2]", "result": "somnolence, fatigue, decreased appetite, increased appetite and diarrhoea"}, {"measurement": "adverse events", "setting": "[1]; [2]", "result": "mild and well tolerated"}, {"measurement": "subjects who withdrew during the treatment period", "setting": "[1]; [2]", "result": "None"}, {"measurement": "Responder rate (>50% reduction), number of patients", "setting": "[1]; [3]", "result": 2}, {"measurement": "Responder rate (>70% reduction) [%]", "setting": "[1]; [3]", "result": 50, "unit": "%"}, {"measurement": "Responder rate (>70% reduction), number of patients", "setting": "[1]; [3]", "result": 2}, {"measurement": "Responder rate (>90% reduction) [%]", "setting": "[1]; [3]", "result": 25, "unit": "%"}, {"measurement": "Seizure free, number of patients", "setting": "[1]; [3]", "result": 0}]}
